Data as given in patent US20200179428A1, “CYCLIC PHOSPHATE SUBSTITUTED NUCLEOSIDE DERIVATIVES AND METHODS OF USE THEREOF FOR THE TREATMENT OF VIRAL DISEASES” (priority 2016, published 2020).
Where two headings read alike, the source gives them in different places.

How the values were obtained:
[1] = Cytotoxicity MTS assay (CellTiter 96 Aqueous One Solution) in replicon cells; assay type: cell-based; conditions: HCV replicon cells (1b-Con1); EDU; read-out: CC50 (EDU) Range
Protocol: (§1) To measure cell-based anti-HCV activity of the compounds of the present invention, replicon cells (1b-Con1) are seeded at 5000 cells/well in 96-well plates one day prior to treatment with a compound of the invention. Various concentrations of a test compound of the invention in DMSO are then added to the replicon cells, with the final concentration of DMSO at 0.5% and fetal bovine serum at 10% in the assay media. Cells are harvested three days post-dosing, and the replicon RNA level is determined using real-time RT-PCR (Taqman assay) with GAPDH RNA as endogenous control. EC50 values are calculated from experiments with 10 serial twofold dilutions of the inhibitor in triplicate. To measure cytotoxicity in replicon cells of an inhibitor, an MTS assay is performed according to the manufacturer's protocol for CellTiter 96 Aqueous One Solution Cell Proliferation Assay (Promega, Cat # G3580) three days post dosing on cells treated identically as in replicon activity assays. […] Cytotoxicity in other types of cells may be measured using the same MTS protocol.

[2] = system: replicon cells (1b-Con1); assay: Replicon activity assay (replicon RNA level by real-time RT-PCR, Taqman); assay type: cell-based; conditions: HCV replicon genotype 1b, read-out: EC50 (1b) Range
Protocol: as §1

Row | Structure (SMILES) | CC50 at 3 days [1] [µM] | EC50 ([2]; Hepatitis C virus) [µM] | EC50 [2] [µM]
1 | C#C[C@]1(C)[C@@H]2OP(=O)(OCCC(C)C(=O)OC3CCCC3)OC[C@H]2O[C@H]1n1ccc(=O)[nH]c1=O (single isomer, unassigned) [Compound 2B] | > 50 | ≤ 0.25 | –
2 | CO[C@H](CCOP1(=O)OC[C@H]2O[C@@H](n3ccc(=O)[nH]c3=O)[C@](C)(Cl)[C@@H]2O1)C(=O)OC(C)C (some centres unmarked) [Compound 37A] | > 50 | 0.25 to 1 | –
3 | C#C[C@]1(C)[C@@H]2O[P@@](=O)(OCCC(CC)C(=O)OC3CCCC3)OC[C@H]2O[C@H]1n1ccc(=O)[nH]c1=O (some centres unmarked) [Compound 30A] | > 50 | > 10 | –
4 | CO[C@H](CO[P@@]1(=O)OC[C@H]2O[C@@H](n3ccc(=O)[nH]c3=O)[C@](C)(N)[C@@H]2O1)[C@@H](OC)C(=O)OC(C)C [Compound 48A] | > 50 | > 10 | –
5 | C[C@@]1(N)[C@@H]2OP(=O)(OCCC3(C(=O)OC4CCCC4)CCC3)OC[C@H]2O[C@H]1n1ccc(=O)[nH]c1=O (some centres unmarked) [Compound 29A] | > 50 | > 10 | –
6 | CC(CCO[P@@]1(=O)OC[C@H]2O[C@@H](n3ccc(=O)[nH]c3=O)[C@](C)(N)[C@@H]2O1)C(=O)OC1CCCCC1 (some centres unmarked) [Compound 78A] | > 50 | > 10 | –
7 | C#C[C@]1(C)[C@@H]2O[P@](=O)(OCCOCC(=O)OC(C)C)OC[C@H]2O[C@H]1n1ccc(=O)[nH]c1=O [Compound 68B] | > 50 | 1 to 10 | –
8 | CC(=O)O[C@@H](CO[P@]1(=O)OC[C@H]2O[C@@H](n3ccc(=O)[nH]c3=O)[C@](C)(N)[C@@H]2O1)[C@@H](OC(C)=O)C(=O)OC(C)C [Compound 54B] | > 50 | > 10 | –
9 | C#C[C@]1(C)[C@@H]2O[P@@](=O)(OCC[C@H](NC(=O)OC)C(=O)OC(C)C)OC[C@H]2O[C@H]1n1ccc(=O)[nH]c1=O [Compound 43A] | > 50 | > 10 | –
10 | CC(C)OC(=O)C(CCO[P@@]1(=O)OC[C@H]2O[C@@H](n3ccc(=O)[nH]c3=O)[C@](C)(N)[C@@H]2O1)c1ccccc1 (some centres unmarked) [Compound 33A] | > 50 | > 10 | –
11 | C#C[C@]1(C)[C@@H]2O[P@](=O)(OCC[C@H](NC(=O)OC)C(=O)OC(C)C)OC[C@H]2O[C@H]1n1ccc(=O)[nH]c1=O [Compound 43B] | > 50 | > 10 | –
12 | C#C[C@]1(C)[C@@H]2OP(=O)(OCCC(C)C(=O)OC3CCCC3)OC[C@H]2O[C@H]1n1ccc(=O)[nH]c1=O (some centres unmarked) [Compound 2A] | > 50 | 1 to 10 | –
13 | CC(C)OC(=O)C(CCO[P@]1(=O)OC[C@H]2O[C@@H](n3ccc(=O)[nH]c3=O)[C@](C)(N)[C@@H]2O1)C(C)C (some centres unmarked) [Compound 24B] | > 50 | > 10 | –
14 | C#C[C@@]1(O)[C@@H]2OP(=O)(OCC[C@H](C)C(=O)OC(C)C)OC[C@H]2O[C@H]1n1ccc(=O)[nH]c1=O (single isomer, unassigned) [Compound 7A2] | > 50 | – | 0.25 to 1
15 | C#C[C@]1(C)[C@@H]2O[P@@](=O)(OCCC(C)C(=O)OC3CCCCC3)OC[C@H]2O[C@H]1n1ccc(=O)[nH]c1=O (some centres unmarked) [Compound 77A] | > 50 | 1 to 10 | –
16 | CC(C)OC(=O)C(C)CCOP1(=O)OC[C@H]2O[C@@H](n3cnc4c(N)ncnc43)[C@](C)(Cl)[C@@H]2O1 (some centres unmarked) [Compound 35A] | > 50 | ≤ 0.25 | –
17 | CC(C)OC(=O)C(C)CCOP1(=O)OC[C@H]2O[C@@H](n3ccc(=O)[nH]c3=O)[C@](C)(N)[C@@H]2O1 (some centres unmarked) [Compound 10A] | > 50 | > 10 | –
18 | C#C[C@]1(C)[C@@H]2O[P@](=O)(OCC[C@@H](OC(C)=O)C(=O)OC(C)C)OC[C@H]2O[C@H]1n1ccc(=O)[nH]c1=O [Compound 50B] | > 50 | 0.25 to 1 | –
19 | C#C[C@]1(C)[C@@H]2O[P@](=O)(OCC[C@H](OC(C)=O)C(=O)OC(C)C)OC[C@H]2O[C@H]1n1ccc(=O)[nH]c1=O [Compound 51B] | > 50 | ≤ 0.25 | –
20 | C#C[C@]1(C)[C@@H]2O[P@@](=O)(OCC[C@@H](OC)C(=O)OC(C)C)OC[C@H]2O[C@H]1n1ccc(=O)[nH]c1=O [Compound 57A] | > 50 | 1 to 10 | –
21 | CC(C)OC(=O)[C@H](C)CCOP1(=O)OC[C@H]2O[C@@H](n3cnc4c(N)ncnc43)[C@](C)(F)[C@@H]2O1 (some centres unmarked) [Compound 88A] | > 50 | ≤ 0.25 | –
22 | C#C[C@]1(C)[C@@H]2O[P@@](=O)(OCC(C)CCC(=O)OC(C)C)OC[C@H]2O[C@H]1n1ccc(=O)[nH]c1=O (some centres unmarked) [Compound 22A] | > 50 | > 10 | –
